Measurements taken from the Biogen ADME set (Fang et al. 2023).
In brackets after ≈: the same amount, converted by molar mass.

Settings: for aqueous solubility: pH 6.8

| MDR1-MDCK efflux ratio | intrinsic clearance, human liver microsomes | intrinsic clearance, rat liver microsomes | aqueous solubility | fraction unbound, human plasma | fraction unbound, rat plasma | SMILES |
| --- | --- | --- | --- | --- | --- | --- |
| 0.64 | 60.6 mL/min/kg | 3460 mL/min/kg |  |  |  | Fc1cccc(N2CCCC2)c1CN1CCN(Cc2ccon2)CC1 |
|  | 195 mL/min/kg | 3690 mL/min/kg |  |  |  | CNC(=O)[C@H]1O[C@@H](n2cnc3c(NCc4cccc(I)c4)ncnc32)[C@H](O)[C@@H]1O |
| 0.534 | 126 mL/min/kg | 516 mL/min/kg |  |  |  | c1ccc(OCCN2CCN(c3ncccn3)CC2)cc1 |
|  | ≤ 4.74 mL/min/kg | ≤ 10.7 mL/min/kg |  |  |  | CC(C)c1ccc2occ(CC(=O)O)c2c1 |
| 19.9 | ≤ 4.74 mL/min/kg | 20.3 mL/min/kg | 70 µg/mL (≈ 218 µM) |  |  | CN1CCCN(C(=O)NCCOc2ccc3c(c2)OCO3)CC1 |
|  | 19.1 mL/min/kg | 296 mL/min/kg | 1.02 µg/mL (≈ 2.39 µM) |  |  | CCN1CCN(c2ccc(NC(=O)c3ncoc3-c3ccc4ccccc4c3)cc2)CC1 |
| 18.2 | 63.5 mL/min/kg | 4360 mL/min/kg |  |  |  | Cc1[nH]nc(CCC(=O)NCCCOC2CCCCC2)c1C |
| 16.9 |  |  |  | 0.00867 | 0.00796 | CC(C)[C@H](CO)Nc1nc(Nc2cc(N)cc(Cl)c2)c2ncn(C(C)C)c2n1 |
| 0.657 | ≤ 4.74 mL/min/kg | 97.1 mL/min/kg |  |  |  | Cc1cccc(C)c1OCCn1nnnc1C |
| 0.309 | 411 mL/min/kg | 2980 mL/min/kg |  |  |  | CCOC(=O)c1ccc(N2CCSCC2)nc1 |
| 0.563 | 11.8 mL/min/kg | 421 mL/min/kg | 4.2 µg/mL (≈ 14.6 µM) |  |  | CCCCOc1ccc(C(=O)NCc2cc(C)on2)cc1 |
|  |  |  | 5.67 µg/mL (≈ 28 µM) |  |  | Cc1nnnn1CCCc1ccccc1 |
|  | 40.2 mL/min/kg | 402 mL/min/kg |  |  |  | Cc1ccc(F)cc1NCc1csc(-c2cnn(C)c2)n1 |
|  |  |  | 97 µg/mL (≈ 379 µM) |  |  | O=C(COc1ccc(F)cc1F)N1CCNC1=O |
|  |  |  | 38.5 µg/mL (≈ 147 µM) |  |  | N#CCN(CN1C(=O)CC2(CCCC2)C1=O)C1CC1 |
| 0.769 | 62.4 mL/min/kg | 1240 mL/min/kg | 33 µg/mL (≈ 88.4 µM) |  |  | O=C(c1ccccc1F)N1CCC[C@@H]1Cn1nnn(-c2cccs2)c1=O |
| 0.313 | 95.2 mL/min/kg | 4490 mL/min/kg | 2.57 µg/mL (≈ 8.2 µM) |  |  | Fc1ccc(CNc2nnc(-c3ccc4c(c3)OCO4)o2)cc1 |
| 0.569 | 28.3 mL/min/kg | 652 mL/min/kg | 22.5 µg/mL (≈ 74.5 µM) |  |  | Cc1nn(C)c2ncnc(N(C)Cc3cccc(Cl)c3)c12 |
| 0.547 | 122 mL/min/kg | 2520 mL/min/kg | 6.12 µg/mL (≈ 21.4 µM) |  |  | Cc1ccc2c(CC(=O)NCc3cccs3)coc2c1 |
| 0.649 | 31.3 mL/min/kg | 353 mL/min/kg | 1.61 µg/mL (≈ 4.92 µM) |  |  | Cc1cc(C)n(-c2cccc(NC(=O)c3ccc(F)c(F)c3)c2)n1 |
| 5.92 | ≤ 4.74 mL/min/kg | ≤ 10.7 mL/min/kg | 72.2 µg/mL (≈ 240 µM) |  |  | Cc1oc(C)c(C(=O)N2CCNC(=O)C2)c1Br |
| 0.91 | ≤ 4.74 mL/min/kg | ≤ 10.7 mL/min/kg | 56.5 µg/mL (≈ 250 µM) |  |  | Cc1cc(NC(=O)C2CCOCC2)sn1 |
| 0.866 | 7.23 mL/min/kg | 122 mL/min/kg | 27.4 µg/mL (≈ 88.2 µM) |  |  | Clc1cccc(-c2nnc(Cn3cnc4ccccc43)o2)c1 |
| 85.5 | 9.79 mL/min/kg | 210 mL/min/kg |  | 0.00892 | 0.00491 | C=CC(=O)Nc1cccc(Oc2nc(Nc3ccc(N4CCN(C)CC4)cc3)nc3ccsc23)c1 |
| 0.774 | 84.5 mL/min/kg | 309 mL/min/kg | 46.6 µg/mL (≈ 151 µM) |  |  | Cc1ncc2c(n1)CN(CCCc1nc3ccccc3o1)CC2 |
|  | 27.6 mL/min/kg | 1270 mL/min/kg | 31.6 µg/mL (≈ 135 µM) |  |  | Cc1ccc(CN(C)Cc2c(C)noc2C)o1 |
| 0.961 | 132 mL/min/kg | 784 mL/min/kg | 56.1 µg/mL (≈ 143 µM) |  |  | O=C(Cc1ccccc1F)N1CCN(c2nccn3nc4c(c23)CCCC4)CC1 |
| 0.408 | 66.7 mL/min/kg | 283 mL/min/kg |  |  |  | N#Cc1cc(Oc2ccc3c(c2)CCC3)ncn1 |

| MDR1-MDCK efflux ratio | intrinsic clearance, human liver microsomes | intrinsic clearance, rat liver microsomes | aqueous solubility | fraction unbound, human plasma | fraction unbound, rat plasma | SMILES |
| --- | --- | --- | --- | --- | --- | --- |
| 0.59 | 22.6 mL/min/kg | 79.3 mL/min/kg | 52.1 µg/mL (≈ 134 µM) |  |  | FC(F)(F)COc1ccc(CN2CCc3c(cnn3-c3ccccc3)C2)nn1 |
| 0.895 | ≤ 4.74 mL/min/kg | 51.4 mL/min/kg |  |  |  | Cc1ccccc1NC(=O)Cn1nnc(C2CC2)n1 |
| 0.552 | 16 mL/min/kg | 456 mL/min/kg |  |  |  | N#Cc1ccccc1NC(=O)CCc1ccccc1 |
| 14.1 | 136 mL/min/kg | 105 mL/min/kg | 3.23 µg/mL (≈ 5.72 µM) |  |  | Cc1c(CN2CCC(Nc3ncnc4sc(CC(F)(F)F)cc34)CC2)ccc2c1cc(C#N)n2Cc1cn[nH]c1 |
| 19.1 | ≤ 4.74 mL/min/kg | 65.9 mL/min/kg | 59 µg/mL (≈ 179 µM) |  |  | O=C1CCCN1CCc1nc(-c2ccc3[nH]c(=O)oc3c2)cs1 |
| 2.78 | ≤ 4.74 mL/min/kg | 115 mL/min/kg | 2.1 µg/mL (≈ 6.06 µM) |  |  | Nc1nc(N)c2nc(-c3cccc(O)c3)c(-c3cccc(O)c3)nc2n1 |
| 43.2 | ≤ 4.74 mL/min/kg | 57 mL/min/kg |  |  |  | c1ccc(Nc2nc(N3CCNCC3)nc(N3CCOCC3)n2)cc1 |
| 0.629 | 69.6 mL/min/kg | 497 mL/min/kg | 55.5 µg/mL (≈ 165 µM) |  |  | O=C(CCc1cc2ccccc2o1)N1CCN(c2cnccn2)CC1 |
| 0.95 | 29.7 mL/min/kg | 1050 mL/min/kg |  |  |  | Cc1cnc(NCC2(CO)CCCC2)nc1N(C)C |
| 11 | 13.3 mL/min/kg | 106 mL/min/kg | 48.7 µg/mL (≈ 120 µM) |  |  | Cc1c(-c2ccccc2)oc2c(C(=O)NCCCN3CCCCC3)cccc2c1=O |
| 4.25 | 31.9 mL/min/kg | 548 mL/min/kg | 35 µg/mL (≈ 98.9 µM) |  |  | CCc1nc(C)c(Cn2ccnc2-c2cnc(N3CCCC3)nc2)s1 |
| 0.87 | 8.62 mL/min/kg | 200 mL/min/kg |  |  |  | Cc1nccc(N(C)Cc2nc(-c3cccnc3)no2)n1 |
| 0.677 | 8.11 mL/min/kg | 165 mL/min/kg | 37.1 µg/mL (≈ 185 µM) |  |  | CCc1c(N)cnn1-c1ccccc1C |
| 0.716 | 24.6 mL/min/kg | 370 mL/min/kg | 27 µg/mL (≈ 111 µM) |  |  | CCn1nc(C2CCCC2)nc1-c1ccncc1 |
|  | 82.3 mL/min/kg | 1900 mL/min/kg | 58.1 µg/mL (≈ 199 µM) |  |  | CN(NC(=O)c1ccn(-c2ccccc2)n1)c1ccccc1 |
| 0.497 | 191 mL/min/kg | 2320 mL/min/kg | 15.5 µg/mL (≈ 50 µM) |  |  | COc1ccc(C)cc1NC(=O)CN1CCc2ccccc2C1 |
| 4.04 |  |  |  |  |  | O=C(c1ccc2c(c1)CCCC2)N1CCOCC1c1ccn[nH]1 (stereo not given) |
| 0.466 | 13.7 mL/min/kg | 135 mL/min/kg | 14.2 µg/mL (≈ 36.5 µM) |  |  | COCCOCc1ccc(-c2cc3onc(-c4ccccc4)c3c(=O)n2C)cc1 |
| 0.851 | 14.5 mL/min/kg | 377 mL/min/kg | 42.1 µg/mL (≈ 163 µM) |  |  | O=C1Nc2ccccc2O[C@H]2C[C@@H]1N(CC1CC1)C2 |
| 17.8 | 36.9 mL/min/kg | 74.1 mL/min/kg | 56.3 µg/mL (≈ 168 µM) |  |  | Cc1ccc2nc3c(c(C(=O)NCc4cnn(C)c4)c2c1)CCCC3 |
| 1.03 | 229 mL/min/kg | 1650 mL/min/kg | 11 µg/mL (≈ 26.6 µM) |  |  | O=C(CN1CCCN(c2ccc(C(F)(F)F)cn2)CC1)Nc1ccccc1Cl |
| 0.753 |  |  | 0.96 µg/mL (≈ 2.29 µM) |  |  | Cc1cc(C(=O)NC2CCN(c3nc(-c4cccs4)nc4ccccc34)CC2)on1 |
|  | 21.1 mL/min/kg | 993 mL/min/kg |  |  |  | O=[N+]([O-])c1ccc(S(=O)(=O)Nc2cccc(-c3nc4ccccc4[nH]3)c2)cc1 |
| 0.149 | 82.2 mL/min/kg | 127 mL/min/kg | 5.16 µg/mL (≈ 15.5 µM) |  |  | O=C(Nc1nc(-c2ccccn2)cs1)c1ccc(F)cc1Cl |
|  |  |  | 28 µg/mL (≈ 137 µM) |  |  | Nc1ccc(N2C(=O)CCCC2=O)cc1 |
| 35.5 | 18.7 mL/min/kg | 103 mL/min/kg |  |  |  | Cc1cc(Nc2nnc(C)s2)cc(C2CN(C(=O)Cc3csc(C)n3)CCO2)n1 (stereo not given) |
| 2.95 | ≤ 4.74 mL/min/kg | 41.2 mL/min/kg | 50.1 µg/mL (≈ 158 µM) |  |  | Cn1cc(NC(=O)c2ccc(OCC3CCOCC3)nc2)cn1 |

| SMILES | MDR1-MDCK efflux ratio | intrinsic clearance, human liver microsomes | intrinsic clearance, rat liver microsomes | aqueous solubility | fraction unbound, human plasma | fraction unbound, rat plasma |
| --- | --- | --- | --- | --- | --- | --- |
| Cc1nc(CN2C[C@@H](c3ccc4c(c3)OCO4)[C@@H]3[C@H]2C2CCN3CC2)co1 | 53.4 | 96.7 mL/min/kg | 205 mL/min/kg | 48.3 µg/mL (≈ 131 µM) |  |  |
| O=C(N[C@@H](COc1ccc2[nH]c(=O)[nH]c2c1)c1ccccc1)c1cccn(Cc2ccc(F)c(F)c2)c1=O |  | 53.2 mL/min/kg | 383 mL/min/kg |  |  |  |
| O=C1Nc2ccccc2O[C@H]2C[C@@H]1N(Cc1cccnc1)C2 | 17.7 | 12.7 mL/min/kg | 281 mL/min/kg | 94.3 µg/mL (≈ 319 µM) |  |  |
